# Reference: patent US20050143382A1 (4SC AG, priority 2003, published 2005)
# pIC50: −log10 of the molar value.
# Experiments:
# Type in all cases: biochemical
# Conditions in all cases: recombinant human kinase, 1 μM ATP
# SRC kinase = target: T1, SRC kinase (Homo sapiens, UniProt P12931); assay: 33PanQinase protein kinase activity assay, SRC
# T1 construct: made in house; host or cells: Sf9 insect cells (baculovirus)
# Description: (§1) The effect of the farazanopyrazine derivatives was tested on recombinant, human protein kinases. All protein kinases were expressed in Sf9 insect cells as human recombinant GST-fusion proteins or as His-tagged proteins by means of the baculovirus expression system. Protein kinases were purified by affinity chromatography using either GSH-agarose or Ni-NTH-agarose. The purity and identity of each was checked by SDS-PAGE/silver staining and by western blot analysis with specific antibodies.
# (§2) A proprietary protein kinase assay (^33 PanQinase® Activity Assay) was used for measuring the kinase activity. All kinase assays were performed in 96-well FlashPlates™ in a 50 μl reaction volume. The assay for all enzymes contained 60 mM HEPES-NaOH, pH 7.5, 3 mM MgCl2, 3 mM MnCl2, 3 μM Na-orthovanadate, 1.2 mM DTT, 50 μg/ml PEG20000 and 1 μM [γ-^33P]-ATP (approx. 5×10^5 cpm per well).
# (§3) The reaction cocktails were incubated at 30° C. for 80 minutes. The reaction was stopped with 50 μl of 2% (v/v) H3PO4, plates were aspirated and washed two times with 200 μl of 0.9% (w/v) NaCl. Incorporation of 33Pi was determined with a microplate scintillation counter. All assays were performed with a BeckmanCoulter/Sagian robotic system.
# VEGF-R2 = target: T2, VEGF-R2 (Homo sapiens, UniProt P35968); assay: 33PanQinase protein kinase activity assay, VEGF-R2
# T2 construct: made in house; host or cells: Sf9 insect cells (baculovirus)
# T2 sequence (P35968 20-1356): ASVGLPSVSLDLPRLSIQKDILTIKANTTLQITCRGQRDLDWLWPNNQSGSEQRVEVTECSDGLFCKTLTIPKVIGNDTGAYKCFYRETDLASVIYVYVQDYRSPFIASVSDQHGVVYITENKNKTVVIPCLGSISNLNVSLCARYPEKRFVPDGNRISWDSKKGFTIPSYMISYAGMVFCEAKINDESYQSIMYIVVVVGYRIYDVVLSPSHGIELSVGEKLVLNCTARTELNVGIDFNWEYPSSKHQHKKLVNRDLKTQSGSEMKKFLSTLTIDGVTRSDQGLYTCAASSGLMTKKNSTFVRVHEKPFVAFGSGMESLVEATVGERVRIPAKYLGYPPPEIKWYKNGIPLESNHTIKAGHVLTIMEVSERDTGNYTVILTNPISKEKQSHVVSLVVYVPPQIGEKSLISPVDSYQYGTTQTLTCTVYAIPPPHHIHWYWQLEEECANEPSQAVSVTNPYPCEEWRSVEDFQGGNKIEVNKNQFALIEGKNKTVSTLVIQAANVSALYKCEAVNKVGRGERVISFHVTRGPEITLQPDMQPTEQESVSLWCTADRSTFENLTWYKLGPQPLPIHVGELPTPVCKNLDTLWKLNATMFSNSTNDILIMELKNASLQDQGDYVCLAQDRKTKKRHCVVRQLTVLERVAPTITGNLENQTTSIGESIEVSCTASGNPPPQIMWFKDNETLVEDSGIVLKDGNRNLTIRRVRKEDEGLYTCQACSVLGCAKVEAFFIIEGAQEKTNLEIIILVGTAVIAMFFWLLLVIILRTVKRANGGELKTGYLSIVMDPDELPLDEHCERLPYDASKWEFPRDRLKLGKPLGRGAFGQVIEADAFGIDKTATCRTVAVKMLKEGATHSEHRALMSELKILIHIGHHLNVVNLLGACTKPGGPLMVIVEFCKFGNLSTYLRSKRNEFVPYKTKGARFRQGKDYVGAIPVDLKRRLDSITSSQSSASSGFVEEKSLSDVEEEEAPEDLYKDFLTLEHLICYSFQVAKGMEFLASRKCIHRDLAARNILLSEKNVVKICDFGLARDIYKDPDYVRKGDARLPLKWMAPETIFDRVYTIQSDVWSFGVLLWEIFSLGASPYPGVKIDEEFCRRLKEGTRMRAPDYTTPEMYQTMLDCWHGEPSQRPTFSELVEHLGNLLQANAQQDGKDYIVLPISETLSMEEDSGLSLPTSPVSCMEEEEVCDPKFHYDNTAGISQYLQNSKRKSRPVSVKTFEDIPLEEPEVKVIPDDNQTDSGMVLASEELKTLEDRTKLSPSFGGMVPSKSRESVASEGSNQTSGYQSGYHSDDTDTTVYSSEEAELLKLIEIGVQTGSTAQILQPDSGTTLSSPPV
# Description: as §1, §2, §3
# IGF-1 R = target: T3, IGF-1 R (Homo sapiens, UniProt P08069); assay: 33PanQinase protein kinase activity assay, IGF-1 R
# T3 construct: made in house; host or cells: Sf9 insect cells (baculovirus)
# T3 sequence (P08069 31-1367): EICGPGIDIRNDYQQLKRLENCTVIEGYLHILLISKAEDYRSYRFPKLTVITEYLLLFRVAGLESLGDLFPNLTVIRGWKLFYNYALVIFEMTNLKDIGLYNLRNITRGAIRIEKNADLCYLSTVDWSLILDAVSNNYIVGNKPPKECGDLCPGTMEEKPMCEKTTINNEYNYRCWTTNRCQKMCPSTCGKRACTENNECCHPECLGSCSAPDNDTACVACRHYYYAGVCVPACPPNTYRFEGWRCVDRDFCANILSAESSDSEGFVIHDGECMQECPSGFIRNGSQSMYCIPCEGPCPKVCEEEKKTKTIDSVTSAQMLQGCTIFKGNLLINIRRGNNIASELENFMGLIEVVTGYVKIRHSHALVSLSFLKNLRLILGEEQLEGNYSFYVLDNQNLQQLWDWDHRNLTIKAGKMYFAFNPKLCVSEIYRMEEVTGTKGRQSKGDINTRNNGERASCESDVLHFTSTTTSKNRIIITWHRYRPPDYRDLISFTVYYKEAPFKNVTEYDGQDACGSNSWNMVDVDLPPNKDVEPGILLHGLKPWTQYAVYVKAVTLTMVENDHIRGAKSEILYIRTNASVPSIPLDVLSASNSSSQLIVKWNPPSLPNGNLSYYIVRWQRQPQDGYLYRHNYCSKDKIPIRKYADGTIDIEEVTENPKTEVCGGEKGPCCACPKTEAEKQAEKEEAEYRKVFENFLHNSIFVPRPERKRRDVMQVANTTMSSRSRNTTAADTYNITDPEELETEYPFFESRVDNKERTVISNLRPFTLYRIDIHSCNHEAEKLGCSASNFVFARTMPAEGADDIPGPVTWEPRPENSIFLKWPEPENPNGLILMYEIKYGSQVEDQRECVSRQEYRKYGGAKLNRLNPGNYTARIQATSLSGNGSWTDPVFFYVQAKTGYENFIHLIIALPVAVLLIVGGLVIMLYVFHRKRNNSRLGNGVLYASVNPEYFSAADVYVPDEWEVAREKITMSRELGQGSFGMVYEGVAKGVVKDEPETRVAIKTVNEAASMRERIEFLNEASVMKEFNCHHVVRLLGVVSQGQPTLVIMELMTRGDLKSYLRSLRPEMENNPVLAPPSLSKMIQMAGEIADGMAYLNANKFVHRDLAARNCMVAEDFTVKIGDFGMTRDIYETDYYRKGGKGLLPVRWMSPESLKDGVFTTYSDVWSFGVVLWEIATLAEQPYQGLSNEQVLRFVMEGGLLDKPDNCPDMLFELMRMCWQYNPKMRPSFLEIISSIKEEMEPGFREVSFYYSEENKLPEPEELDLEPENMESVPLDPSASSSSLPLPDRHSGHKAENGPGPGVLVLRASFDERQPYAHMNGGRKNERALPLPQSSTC
# Description: as §1, §2, §3
# T1 sequence (P12931 whole entry): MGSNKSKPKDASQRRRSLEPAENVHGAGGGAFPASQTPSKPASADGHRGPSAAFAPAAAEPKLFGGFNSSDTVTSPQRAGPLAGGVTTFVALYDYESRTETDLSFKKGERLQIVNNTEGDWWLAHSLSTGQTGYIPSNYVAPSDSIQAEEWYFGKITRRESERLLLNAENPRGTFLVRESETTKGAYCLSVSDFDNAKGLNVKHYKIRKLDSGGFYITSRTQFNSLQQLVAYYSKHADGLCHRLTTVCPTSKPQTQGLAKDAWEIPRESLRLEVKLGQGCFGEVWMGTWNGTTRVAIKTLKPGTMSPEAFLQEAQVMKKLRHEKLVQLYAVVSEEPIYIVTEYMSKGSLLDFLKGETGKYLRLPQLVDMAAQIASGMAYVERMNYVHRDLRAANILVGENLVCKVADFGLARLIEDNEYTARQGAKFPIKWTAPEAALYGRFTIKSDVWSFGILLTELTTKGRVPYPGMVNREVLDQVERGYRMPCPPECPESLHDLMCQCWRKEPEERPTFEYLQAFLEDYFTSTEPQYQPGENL
SMILES,pIC50 (SRC kinase),pIC50 (VEGF-R2),pIC50 (IGF-1 R)
Cc1cccc(Nc2nc3nonc3nc2NN=Cc2ccc(-c3ccc(Cl)c(C(=O)O)c3)o2)c1C [Example 2],> 6.00,> 5.70,> 6.00
Oc1c(Br)cc(Cl)cc1C=NNc1nc2nonc2nc1Nc1ccc(Cl)c(Cl)c1 [Example 14],> 6.00,> 5.70,> 6.00
"Cc1cc(C)c([N+](=O)[O-])cc1-c1ccc(C=NNc2nc3nonc3nc2Nc2ccccc2F)o1 [Example 29, (6-{N′-[5-(2,4-Dimethyl-5-nitro-phenyl)-furan-2-ylmethylene]-hydrazino}-[1,2,5]oxadiazolo[3,4-b]pyrazin-5-yl)-(2-fluoro-phenyl)-amine]",> 6.00,–,> 6.00
Oc1c(Br)cc(Br)cc1C=NNc1nc2nonc2nc1Nc1ccc(Cl)cc1 [Example 30],> 6.00,–,> 6.00
"Cc1ccc(Nc2nc3nonc3nc2NN=Cc2ccc(-c3cc(C)cc([N+](=O)[O-])c3C)o2)cc1 [Example 33, (6-[N′-[5-(2,5-Dimethyl-3-nitro-phenyl)-furan-2-ylmethylene]-hydrazino}-[1,2,5]oxadiazolo[3,4-b]pyrazin-5-yl)-p-tolyl-amine]",> 6.00,–,–
Oc1c(I)cc(I)cc1C=NNc1nc2nonc2nc1Nc1cccc(Br)c1 [Example 35],> 6.00,> 5.70,> 6.00
"O=[N+]([O-])c1cc(-c2ccc(C=NNc3nc4nonc4nc3Nc3cccc(C(F)(F)F)c3)o2)ccc1Cl [Example 36, (6-{N-[5-(4-Chloro-3-nitro-phenyl)-furan-2-ylmethylene]-hydrazino}-[1,2,5]oxadiazolo [3,4-b]pyrazin-5-yl)-(3-trifluoromethyl-phenyl)-amine]",> 6.00,–,> 6.00
"CCOC(=O)c1ccc(Nc2nc3nonc3nc2NN=Cc2cccc([N+](=O)[O-])c2O)cc1 [Example 37, 4-{6-[N′-(2-Hydroxy-3-nitro-benzylidene)-hydrazino]-[1,2,5]oxadiazolo[3,4-b]pyrazin-5-ylamino}-benzoic Acid Ethyl Ester]",> 6.00,–,–
"O=[N+]([O-])c1ccc(-c2ccc(C=NNc3nc4nonc4nc3Nc3ccc(F)cc3)o2)cc1 [Example 39, (4-Fluoro-phenyl)-(6-{N′-[5-(4-nitro-phenyl)-furan-2-ylmethylene]-hydrazino}-[1,2,5]oxadiazolo[3,4-b]pyrazin-5-yl)-amine]",> 6.00,–,> 6.00
"O=c1[nH]c2ccc(Nc3nc4nonc4nc3NN=Cc3cc(I)cc(I)c3OCc3ccc(Cl)cc3Cl)cc2[nH]1 [Example 55, 5-(6-{N′-[2-(2,4-Dichloro-benzyloxy)-3,5-diiodo-benzylidene]-hydrazino}-[1,2,5]oxadiazolo[3,4-b]pyrazin-5-ylamino)-1,3-dihydro-benzoimidazol-2-one]",> 6.00,–,> 6.00
O=C(O)c1ccc(-c2ccc(C=NNc3nc4nonc4nc3Nc3ccc(F)cc3)o2)cc1 [Example 139],> 6.00,–,> 6.00
O=C(O)c1ccc(C=NNc2nc3nonc3nc2Nc2cccc(Cl)c2)cc1 [Example 143],–,–,> 6.00
Oc1c(Br)cc(Br)cc1C=NNc1nc2nonc2nc1Nc1cccc(Cl)c1 [Example 151],> 6.00,–,> 6.00
COc1cc(Br)cc(C=NNc2nc3nonc3nc2Nc2cccc(Cl)c2)c1O [Example 152],> 6.00,> 5.70,> 6.00
COc1ccc(O)c(C=NNc2nc3nonc3nc2Nc2ccc(F)c(Cl)c2)c1 [Example 167],> 6.00,–,–
"O=[N+]([O-])c1cccc(-c2ccc(C=NNc3nc4nonc4nc3Nc3ccc(F)c(Cl)c3)o2)c1 [Example 174, (3-Chloro-4-fluoro-phenyl)-(6-{N′-[5-(3-nitro-phenyl)-furan-2-ylmethylene]-hydrazino}-[1,2,5]oxadiazolo[3,4-b]pyrazin-5-yl)-amine]",> 6.00,> 5.70,> 6.00
NC(=O)c1cccc(-c2ccc(C=NNc3nc4nonc4nc3Nc3ccc(F)c(Cl)c3)o2)c1 [Example 178],> 6.00,> 5.70,> 6.00
O=C(O)c1ccc(-c2ccc(C=NNc3nc4nonc4nc3Nc3ccc(F)c(Cl)c3)o2)cc1 [Example 179],> 6.00,> 5.70,> 6.00
"O=C1Nc2ccccc2C1=NNc1nc2nonc2nc1Nc1ccc(F)c(Cl)c1 [Example 182, 3-{1[6-(3-Chloro-4-fluoro-phenylamino)-[1,2,5]oxadiazolo[3,4-b]pyrazin-5-yl]-hydrazono}-1,3-dihydro-indol-2-one]",> 6.00,> 5.70,> 6.00
O=C(O)c1cccc(C=NNc2nc3nonc3nc2Nc2ccc(Cl)c(Cl)c2)c1 [Example 186],> 6.00,> 5.70,> 6.00
COc1ccc(O)c(C=NNc2nc3nonc3nc2Nc2ccc(Cl)c(Cl)c2)c1 [Example 191],> 6.00,> 5.70,> 6.00
COc1cccc(C=NNc2nc3nonc3nc2Nc2ccc(Cl)c(Cl)c2)c1O [Example 192],–,–,> 6.00
NC(=O)c1cccc(-c2ccc(C=NNc3nc4nonc4nc3Nc3ccc(Cl)c(Cl)c3)o2)c1 [Example 198],> 6.00,> 5.70,> 6.00

# Next, values leading:
pIC50 (SRC kinase),pIC50 (VEGF-R2),pIC50 (IGF-1 R),SMILES
> 6.00,> 5.70,–,"Fc1ccc(Nc2nc3nonc3nc2NN=Cc2ccc(-c3ccc(Cl)cc3Cl)o2)cc1 [Example 15, (6-{N′-[5-(2,4-Dichloro-phenyl)-furan-2-ylmethylene]-hydrazino}-[1,2,5]oxadiazolo [3,4-b]pyrazin-5-yl)-(4-fluoro-phenyl)-amine]"
> 6.00,–,–,"C(=NNc1nc2nonc2nc1Nc1ccccc1)c1cc2ccccc2o1 [Example 88, [6-(N′-Benzofuran-2-ylmethylene-hydrazino)-(1,2,5]oxadiazolo[3,4-b]pyrazin-5-yl]-phenyl-amine]"
> 6.00,–,–,"O=[N+]([O-])c1cccc(-c2ccc(C=NNc3nc4nonc4nc3Nc3ccccc3)o2)c1 [Example 90, (6-{N′-[5-(3-Nitro-phenyl)-furan-2-ylmethylene]-hydrazino}-[1,2,5]oxadiazolo [3,4-b]pyrazin-5-yl)-phenyl-amine]"
> 6.00,–,> 6.00,"O=[N+]([O-])c1cccc(-c2ccc(C=NNc3nc4nonc4nc3Nc3ccc(F)cc3)o2)c1 [Example 135, (4-Fluoro-phenyl)-(6-{N′-[5-(3-nitro-phenyl)-furan-2-ylmethylene]-hydrazino}-[1,2,5]oxadiazolo [3,4-b]pyrazin-5-yl)-amine]"
> 6.00,> 5.70,> 6.00,"O=[N+]([O-])c1cccc(-c2ccc(C=NNc3nc4nonc4nc3Nc3cccc(Cl)c3)o2)c1 [Example 155, (3-Chloro-phenyl)-(6-{N′-[5-(3-nitro-phenyl)-furan-2-ylmethylene]-hydrazino}-[1,2,5]oxadiazolo[3,4-b]pyrazin-5-yl)-amine]"
> 6.00,> 5.70,> 6.00,"Fc1ccc(Nc2nc3nonc3nc2NN=Cc2cc3ccccc3o2)cc1Cl [Example 172, [6-(N′-Benzofuran-2-ylmethylene-hydrazino)-[1,2,5]oxadiazolo[3,4-b]pyrazin-5-yl]-(3-chloro-4-fluoro-phenyl)-amine]"
> 6.00,–,> 6.00,"Fc1ccc(Nc2nc3nonc3nc2NN=Cc2ccc(-c3ccccc3)o2)cc1Cl [Example 175, (3-Chloro-4-fluoro-phenyl)-{6-[N′-(5-phenyl-furan-2-ylmethylene)-hydrazino]-[1,2,5]oxadiazolo [3,4-b]pyrazin-5-yl}-amine]"
> 6.00,> 5.70,> 6.00,"Fc1ccc(Nc2nc3nonc3nc2NN=Cc2ccc(-c3ccc(Cl)cc3)o2)cc1Cl [Example 180, (3-Chloro-4-fluoro-phenyl)-(6-{N′-[5-(4-chloro-phenyl)-furan-2-yl-methylene]-hydrazino}-[1,2,5]oxadiazolo [3,4-b]pyrazin-5-yl)-amine]"
> 6.00,> 5.70,> 6.00,"Clc1ccc(Nc2nc3nonc3nc2NN=Cc2cc3ccccc3o2)cc1Cl [Example 193, [6-(N′-Benzofuran-2-ylmethylene-hydrazino)-[1,2,5]oxadiazolo[3,4-b]pyrazin-5-yl]-(3,4-dichloro-phenyl)-amine]"
> 6.00,–,–,"Clc1ccc(Nc2nc3nonc3nc2NN=Cc2ccc(-c3ccccc3)o2)cc1Cl [Example 195, (3,4-Dichloro-phenyl)-{6-[N′-(5-phenyl-furan-2-ylmethylene)-hydrazino]-[1,2,5]oxadiazolo[3,4-b]pyrazin-5-yl}-amine]"
> 6.00,–,> 6.00,"Clc1ccc(Nc2nc3nonc3nc2NN=Cc2ccco2)cc1Cl [Example 197, (3,4-Dichloro-phenyl)-[6-(N′-furan-2-ylmethylene-hydrazino)-[1,2,5]-oxadiazolo[3,4-b]pyrazin-5-yl]-amine]"
> 6.00,> 5.70,> 6.00,"Clc1ccc(-c2ccc(C=NNc3nc4nonc4nc3Nc3ccc(Cl)c(Cl)c3)o2)cc1 [Example 200, (6-{N-[5-(4-Chloro-phenyl)-furan-2-ylmethylene]-hydrazino}-[1,2,5]-oxadiazolo[3,4-b]pyrazin-5-yl)-(3,4-dichloro-phenyl)-amine]"
